Assay results taken from US8003785B2 (Takeda Pharmaceutical Company Limited, priority 2008, dated 2011).

Target: T1, PLK1 (Homo sapiens, UniProt P53350)
T1 construct: Full-length, active GST-PLK1 is purified from Sf9 insect cells; made in house; host or cells: Sf9 insect cells
Assay: Biochemical Characterization Assay: HTRF kinase assay, GST-PLK1 phosphorylation of GST-p53
Settings: GST-PLK1, GST-p53 substrate
Method: Biochemical Characterization Assay
Full-length, active GST-PLK1 is purified from Sf9 insect cells, and full-length GST-p53 is purified from E. coli. Anti-phospho p53 antibody is from Cell Signaling Technology. Europium-conjugated anti-rabbit antibody is from PerkinElmer Life and Analytical Sciences. APC-conjugated anti-GST antibody is from Prozyme.
Six microliters of GST-PLK1 (3 ug/mL) in Kinase Assay Buffer are then added and the solution incubated at 37° C. for 35 minutes. Six microliters of solution containing 43 mM EDTA to stop the reaction and a 1:600 dilution of anti-phospho-p53 antibody in 20 mM HEPES pH 7, 50 mM NaCl, and 0.5 mg/mL BSA (Antibody Binding Buffer) are added and the solution incubated at 37° C. for 30 minutes. […] The HTRF signal is read on an Envision reader from PerkinElmer Life and Analytical Sciences.

T1 sequence (P53350 whole entry): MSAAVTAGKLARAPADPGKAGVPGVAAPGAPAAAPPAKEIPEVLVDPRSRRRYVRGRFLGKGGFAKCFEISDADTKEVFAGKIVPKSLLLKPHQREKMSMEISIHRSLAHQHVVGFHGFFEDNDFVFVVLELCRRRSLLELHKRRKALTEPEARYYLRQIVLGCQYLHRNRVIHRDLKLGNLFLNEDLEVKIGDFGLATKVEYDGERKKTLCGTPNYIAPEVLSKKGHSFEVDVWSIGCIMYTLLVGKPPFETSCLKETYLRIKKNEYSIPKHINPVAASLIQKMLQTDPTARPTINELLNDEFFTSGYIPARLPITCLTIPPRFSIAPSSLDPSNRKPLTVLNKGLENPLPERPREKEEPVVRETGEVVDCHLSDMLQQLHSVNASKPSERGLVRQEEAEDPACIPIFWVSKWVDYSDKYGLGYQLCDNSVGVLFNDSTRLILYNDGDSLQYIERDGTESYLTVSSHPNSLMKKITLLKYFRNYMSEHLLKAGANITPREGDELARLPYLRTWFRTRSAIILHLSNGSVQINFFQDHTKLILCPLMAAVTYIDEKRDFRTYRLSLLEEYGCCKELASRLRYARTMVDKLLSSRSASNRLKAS

| IC50 | Structure (SMILES) |
| --- | --- |
| > 5000 nM | COc1cc(C(=O)O)ccc1Nc1ncc2c(n1)N([C@@H]1C[C@H]1c1ccccc1)CC(F)(F)C(=O)N2C (relative stereo) [Example I-287, 4-[7,7-difluoro-5-methyl-6-oxo-9-(trans-2-phenyl-cyclopropyl)-6,7,8,9-tetrahydro-5H-pyrimido[4,5-b][1,4]diazepin-2-ylamino]-3-methoxy-benzoic acid] |
| 51 to 500 nM | COc1cc(C(=O)NC2CCN(C)CC2)ccc1Nc1ncc2c(n1)N([C@@H]1C[C@H]1c1ccccc1)CC(F)(F)C(=O)N2C (relative stereo) [Example I-288, 4-[7,7-difluoro-5-methyl-6-oxo-9-(trans-2-phenyl-cyclopropyl)-6,7,8,9-tetrahydro-5H-pyrimido[4,5-b][1,4]diazepin-2-ylamino]-3-methoxy-N-(1-methyl-piperidin-4-yl)-benzamide] |
| > 5000 nM | COc1cc(C(N)=O)ccc1Nc1ncc2c(n1)N([C@@H]1C[C@H]1c1ccccc1)CC(F)(F)C(=O)N2C (relative stereo) [Example I-289, 4-[7,7-difluoro-5-methyl-6-oxo-9-(trans-2-phenyl-cyclopropyl)-6,7,8,9-tetrahydro-5H-pyrimido[4,5-b][1,4]diazepin-2-ylamino]-3-methoxy-benzamide] |
| 51 to 500 nM | COc1cc(C(=O)NCCCN(C)C)ccc1Nc1ncc2c(n1)N([C@@H]1C[C@H]1c1ccccc1)CC(F)(F)C(=O)N2C (relative stereo) [Example I-290, 4-[7,7-difluoro-5-methyl-6-oxo-9-(trans-2-phenyl-cyclopropyl)-6,7,8,9-tetrahydro-5H-pyrimido[4,5-b][1,4]diazepin-2-ylamino]-N-(3-dimethylamino-propyl)-3-methoxy-benzamide] |

Same assay, conditions: GST-PLK1, GST-p53 substrate, ATP

| Structure (SMILES) | IC50 |
| --- | --- |
| COc1cc(C(=O)NC(C)c2ccccc2)ccc1Nc1ncc2c(n1)N(C1CCCC1)CC(F)(F)C(=O)N2C (racemic) [Example I-37, rac-4-(9-cyclopentyl-7,7-difluoro-5-methyl-6-oxo-6,7,8,9-tetrahydro-5H-pyrimido[4,5-b][1,4]diazepin-2-ylamino)-3-methoxy-N-(1-phenyl-ethyl)-benzamide] | 51 to 500 nM |
| COc1cc(C(=O)O)ccc1Nc1ncc2c(n1)N(C1CCC1)CC(F)(F)C(=O)N2C [Example I-1, 4-(9-cyclobutyl-7,7-difluoro-5-methyl-6-oxo-6,7,8,9-tetrahydro-5H-pyrimido[4,5-b][1,4]diazepin-2-ylamino)-3-methoxy-benzoic acid] | 1 to 50 nM |
| COc1cc(C(N)=O)ccc1Nc1ncc2c(n1)N(C1CCC1)CC(F)(F)C(=O)N2C [Example I-2, 4-(9-cyclobutyl-7,7-difluoro-5-methyl-6-oxo-6,7,8,9-tetrahydro-5H-pyrimido[4,5-b][1,4]diazepin-2-ylamino)-3-methoxy-benzamide] | 1 to 50 nM |
| CNC(=O)c1ccc(Nc2ncc3c(n2)N(C2CCC2)CC(F)(F)C(=O)N3C)c(OC)c1 [Example I-3, 4-(9-cyclobutyl-7,7-difluoro-5-methyl-6-oxo-6,7,8,9-tetrahydro-5H-pyrimido[4,5-b][1,4]diazepin-2-ylamino)-3-methoxy-N-methyl-benzamide] | 1 to 50 nM |
| COc1cc(C(=O)NC2CCN(C)CC2)ccc1Nc1ncc2c(n1)N(C1CCC1)CC(F)(F)C(=O)N2C [Example I-4, 4-(9-cyclobutyl-7,7-difluoro-5-methyl-6-oxo-6,7,8,9-tetrahydro-5H-pyrimido[4,5-b][1,4]diazepin-2-ylamino)-3-methoxy-N-(1-methyl-piperidin-4-yl)-benzamide] | 1 to 50 nM |
| COc1cc(C(=O)NC2CCNCC2)ccc1Nc1ncc2c(n1)N(C1CCC1)CC(F)(F)C(=O)N2C [Example I-5, 4-(9-cyclobutyl-7,7-difluoro-5-methyl-6-oxo-6,7,8,9-tetrahydro-5H-pyrimido[4,5-b][1,4]diazepin-2-ylamino)-3-methoxy-N-piperidin-4-yl-benzamide] | 1 to 50 nM |
| COc1cc(C(=O)N2CCC(N)CC2)ccc1Nc1ncc2c(n1)N(C1CCC1)CC(F)(F)C(=O)N2C [Example I-6, 2-[4-(4-amino-piperidine-1-carbonyl)-2-methoxy-phenylamino]-9-cyclobutyl-7,7-difluoro-5-methyl-5,7,8,9-tetrahydro-pyrimido[4,5-b][1,4]diazepin-6-one] | 51 to 500 nM |
| COc1cc(C(=O)NC2CCOCC2)ccc1Nc1ncc2c(n1)N(C1CCC1)CC(F)(F)C(=O)N2C [Example I-7, 4-(9-cyclobutyl-7,7-difluoro-5-methyl-6-oxo-6,7,8,9-tetrahydro-5H-pyrimido[4,5-b][1,4]diazepin-2-ylamino)-3-methoxy-N-(tetrahydro-pyran-4-yl)-benzamide] | 1 to 50 nM |
| COc1cc(C(=O)NCCN(C)C)ccc1Nc1ncc2c(n1)N(C1CCC1)CC(F)(F)C(=O)N2C [Example I-8, 4-(9-cyclobutyl-7,7-difluoro-5-methyl-6-oxo-6,7,8,9-tetrahydro-5H-pyrimido[4,5-b][1,4]diazepin-2-ylamino)-N-(2-dimethylamino-ethyl)-3-methoxy-benzamide] | 1 to 50 nM |

Next, values leading:

| IC50 | Structure (SMILES) |
| --- | --- |
| 51 to 500 nM | COc1cc(C(=O)N[C@@H]2CCN(C(=O)OCc3ccccc3)C[C@H]2O)ccc1Nc1ncc2c(n1)N(C1CCCC1)CC(F)(F)C(=O)N2C (racemic) [Example I-54, rac-(3R,4R)-4-[4-(9-cyclopentyl-7,7-difluoro-5-methyl-6-oxo-6,7,8,9-tetrahydro-5H-pyrimido[4,5-b][1,4]diazepin-2-ylamino)-3-methoxy-benzoylamino]-3-hydroxy-piperidine-1-carboxylic acid benzyl ester] |
| 51 to 500 nM | COc1cc(C(=O)N[C@@H]2CCN(C(=O)OCc3ccccc3)C[C@H]2OC)ccc1Nc1ncc2c(n1)N(C1CCCC1)CC(F)(F)C(=O)N2C (racemic) [Example I-55, rac-(3R,4R)-4-[4-(9-cyclopentyl-7,7-difluoro-5-methyl-6-oxo-6,7,8,9-tetrahydro-5H-pyrimido[4,5-b][1,4]diazepin-2-ylamino)-3-methoxy-benzoylamino]-3-methoxy-piperidine-1-carboxylic acid benzyl ester] |
| 1 to 50 nM | COc1cc(C(=O)N[C@@H]2CCN(C(=O)OC(C)(C)C)C[C@@H]2OC)ccc1Nc1ncc2c(n1)N(C1CCCC1)CC(F)(F)C(=O)N2C (racemic) [Example I-56, rac-(3S,4R)-4-[4-(9-cyclopentyl-7,7-difluoro-5-methyl-6-oxo-6,7,8,9-tetrahydro-5H-pyrimido[4,5-b][1,4]diazepin-2-ylamino)-3-methoxy-benzoylamino]-3-methoxy-piperidine-1-carboxylic acid tert-butyl ester] |
| 1 to 50 nM | COc1cc(C(=O)N[C@@H]2CCNC[C@@H]2OC)ccc1Nc1ncc2c(n1)N(C1CCCC1)CC(F)(F)C(=O)N2C (racemic) [Example I-57, rac-(3S,4R)-4-(9-cyclopentyl-7,7-difluoro-5-methyl-6-oxo-6,7,8,9-tetrahydro-5H-pyrimido[4,5-b][1,4]diazepin-2-ylamino)-3-methoxy-N-(3-methoxy-piperidin-4-yl)-benzamide] |
| 51 to 500 nM | COc1cc(C(=O)N[C@H]2CN(C(=O)OCc3ccccc3)CC[C@@H]2OC)ccc1Nc1ncc2c(n1)N(C1CCCC1)CC(F)(F)C(=O)N2C (racemic) [Example I-58, rac-(3S,4S)-3-[4-(9-cyclopentyl-7,7-difluoro-5-methyl-6-oxo-6,7,8,9-tetrahydro-5H-pyrimido[4,5-b][1,4]diazepin-2-ylamino)-3-methoxy-benzoylamino]-4-methoxy-piperidine-1-carboxylic acid benzyl ester] |
